Experimental data as given in PubChem BioAssay AID1963858 (Molecular Pharmacology Branch, DTP, NCI, 2024).

Test system: HOP-62 multicell spheroids with HUVEC/MSC, viability
Assay: Anticancer human tumor HOP-62 cell line growth inhibition [KRAS2];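 note: viability read after a week of compound exposure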;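 for viability, T/C: 100% = DMSO vehicle-treated spheroids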
Conditions: for IC50: curve of first compound; for viability, T/C: stronger effect = lower value
Summary of the method: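 KRAS-mutant tumor cells were grown as spheroids with HUVEC endothelial cells and human MSCs as stroma. Targeted agents were tested alone and with KRAS pathway inhibitors. Doses started at or near clinical Cmax, or 10 microM, descending half-log.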

[1] = second compound 0.0316 µM, first compound 0.0316 µM
[2] = second compound 0.0316 µM, first compound 0.1 µM
[3] = second compound 0.0316 µM, first compound 0.316 µM
[4] = second compound 0.0316 µM, first compound 1 µM
[5] = second compound 0.0316 µM, first compound 3.16 µM
[6] = second compound 0.0316 µM, first compound 10 µM
[7] = second compound 0.1 µM, first compound 0.0316 µM
[8] = second compound 0.1 µM, first compound 0.1 µM
[9] = second compound 0.1 µM, first compound 0.316 µM
[10] = second compound 0.1 µM, first compound 1 µM
[11] = second compound 0.1 µM, first compound 3.16 µM
[12] = second compound 0.1 µM, first compound 10 µM
[13] = second compound 0.316 µM, first compound 0.0316 µM
[14] = second compound 0.316 µM, first compound 0.1 µM
[15] = second compound 0.316 µM, first compound 0.316 µM
[16] = second compound 0.316 µM, first compound 1 µM
[17] = second compound 0.316 µM, first compound 3.16 µM
[18] = second compound 0.316 µM, first compound 10 µM
[19] = second compound 1 µM, first compound 0.0316 µM
[20] = second compound 1 µM, first compound 0.1 µM
[21] = second compound 1 µM, first compound 0.316 µM
[22] = second compound 1 µM, first compound 1 µM
[23] = second compound 1 µM, first compound 3.16 µM
[24] = second compound 1 µM, first compound 10 µM
[25] = second compound 3.16 µM, first compound 0.0316 µM
[26] = second compound 3.16 µM, first compound 0.1 µM
[27] = second compound 3.16 µM, first compound 0.316 µM
[28] = second compound 3.16 µM, first compound 1 µM
[29] = second compound 3.16 µM, first compound 3.16 µM
[30] = second compound 3.16 µM, first compound 10 µM
[31] = second compound 0.0316 µM, first compound 0.01 µM
[32] = second compound 0.1 µM, first compound 0.01 µM
[33] = second compound 0.316 µM, first compound 0.01 µM
[34] = second compound 1 µM, first compound 0.01 µM
[35] = second compound 3.16 µM, first compound 0.01 µM

SMILES	IC50 (second compound 0.0316 µM) [nM]	IC50 (second compound 0.1 µM) [nM]	IC50 (second compound 0.316 µM) [nM]	IC50 (second compound 1 µM) [nM]	IC50 (second compound 3.16 µM) [nM]	viability, T/C [1] [%]	viability, T/C [2] [%]	viability, T/C [3] [%]	viability, T/C [4] [%]	viability, T/C [7] [%]	viability, T/C [8] [%]	viability, T/C [9] [%]	viability, T/C [10] [%]	viability, T/C [13] [%]	viability, T/C [14] [%]	viability, T/C [15] [%]	viability, T/C [16] [%]	viability, T/C [19] [%]	viability, T/C [20] [%]	viability, T/C [21] [%]	further results
CC(C)NCC(C(=O)N1CCN(c2ncnc3c2C(C)CC3O)CC1)c1ccc(Cl)cc1 (stereo not given) + C=CC(=O)N1CCN(c2nc(OCC3CCCN3C)nc3c2CCN(c2cccc4cccc(C)c24)C3)CC1CC#N	173	48	< 31.6	< 31.6	< 31.6	76.8	57.4	42.4	18.6	55.9	39.7	16.1	9.65	39.4	29.7	15.2	9.41	29.8	21	14.1	viability, T/C [5]: 8.82%; viability, T/C [6]: 6.71%; viability, T/C [11]: 6.16%; viability, T/C [12]: 5.4%; viability, T/C [17]: 5.86%; viability, T/C [18]: 5.37%; viability, T/C [22]: 7.91%; viability, T/C [23]: 5.78%; viability, T/C [24]: 5%; viability, T/C [25]: 0.51%; viability, T/C [26]: 0.35%; viability, T/C [27]: 0.44%; viability, T/C [28]: 0.32%; viability, T/C [29]: 0.31%; viability, T/C [30]: 0.41%
CC1COCCN1c1cc(-c2ccnn2C)c2ccnc(-c3ccn[nH]3)c2n1 (stereo not given) + C=CC(=O)N1CCN(c2nc(OCC3CCCN3C)nc3c2CCN(c2cccc4cccc(C)c24)C3)CC1CC#N	39.9	30.9	12.2	< 10	< 10	55.4	28.6	17.6	14	49.3	22.7	12	11.7	30.3	19.4	10.9	9.7	18.6	9.29	8.75	viability, T/C [31]: 94.9%; viability, T/C [5]: 12.8%; viability, T/C [32]: 79.4%; viability, T/C [11]: 10%; viability, T/C [33]: 54%; viability, T/C [17]: 7.82%; viability, T/C [34]: 27.2%; viability, T/C [22]: 8.51%; viability, T/C [23]: 7.02%; viability, T/C [35]: 2.88%; viability, T/C [25]: 1.59%; viability, T/C [26]: 0.93%; viability, T/C [27]: 0.21%; viability, T/C [28]: 0.17%; viability, T/C [29]: 3.92%
CCN1CCN(Cc2ccc(Nc3ncc(F)c(-c4cc(F)c5nc(C)n(C(C)C)c5c4)n3)nc2)CC1 + C=CC(=O)N1CCN(c2nc(OCC3CCCN3C)nc3c2CCN(c2cccc4cccc(C)c24)C3)CC1CC#N	422	58.2	17.2	< 3.16	< 3.16	64.1	65	52.4	42.9	54.7	43.8	42.9	31.6	51.3	38.4	34.1	30.1	37.3	37.1	37.8	viability, T/C (second compound 0.0316 µM, first compound 0.00316 µM): 91.3%; viability, T/C [31]: 83.8%; viability, T/C (second compound 0.1 µM, first compound 0.00316 µM): 65.6%; viability, T/C [32]: 59.4%; viability, T/C (second compound 0.316 µM, first compound 0.00316 µM): 57.3%; viability, T/C [33]: 51.4%; viability, T/C (second compound 1 µM, first compound 0.00316 µM): 39.4%; viability, T/C [34]: 33.8%; viability, T/C [22]: 23.8%; viability, T/C (second compound 3.16 µM, first compound 0.00316 µM): 0.71%; viability, T/C [35]: 1.27%; viability, T/C [25]: 1.14%; viability, T/C [26]: 0.26%; viability, T/C [27]: 0.17%; viability, T/C [28]: 0.19%
CCNC(=O)CC1N=C(c2ccc(Cl)cc2)c2cc(OC)ccc2-n2c(C)nnc21 (stereo not given) + C=CC(=O)N1CCN(c2nc(OCC3CCCN3C)nc3c2CCN(c2cccc4cccc(C)c24)C3)CC1CC#N	168	37.4	437	< 31.6	< 31.6	82.8	62.3	34.6	33.2	51	43.6	25.1	22.7	95	95.4	53.5	45.1	33.2	24.5	20.2	viability, T/C [5]: 27.2%; viability, T/C [6]: 29.3%; viability, T/C [11]: 18.2%; viability, T/C [12]: 20.6%; viability, T/C [17]: 41.5%; viability, T/C [18]: 36.8%; viability, T/C [22]: 19.2%; viability, T/C [23]: 16.4%; viability, T/C [24]: 16.1%; viability, T/C [25]: 0.58%; viability, T/C [26]: 0.37%; viability, T/C [27]: 0.12%; viability, T/C [28]: 0.12%; viability, T/C [29]: 0.39%; viability, T/C [30]: 0.19%
